Results on six compounds are retold here after ChEMBL document CHEMBL3232987, “Investigation of Ugi-4CC derived 1H-tetrazol-5-yl-(aryl) methyl piperazinyl-6-fluoro-4-oxo-1,4-dihydroquinoline-3-carboxylic acid: synthesis, biology and 3D-QSAR analysis” (Eur J Med Chem, 2014).

Test [1] concerns Staphylococcus aureus. The experiment in a line: Antibacterial activity against methicillin-resistant Staphylococcus aureus ATCC 700699 by NCCLS two-fold dilution method. It is filed as functional.
Test [2] relates to Staphylococcus aureus. Description: Antibacterial activity against methicillin-resistant Staphylococcus aureus ATCC 700699 after 24 hrs by spectrophotometric analysis. It is filed as functional, organism-based. The conditions noted are these: Staphylococcus aureus, ATCC 700699, 24 h; for IC50: read-out: IC50.
Test [3] concerns Staphylococcus aureus. The experiment in a line: Antibacterial activity against Staphylococcus aureus ATCC 25923 by NCCLS two-fold dilution method. Type of test: functional. The note with it: for MIC: Staphylococcus aureus, ATCC 25923.
Test [4] deals with Staphylococcus aureus. Description: Antibacterial activity against Staphylococcus aureus ATCC 29213 by NCCLS two-fold dilution method. It is filed as functional.
Test [5] concerns Staphylococcus aureus. Description: Antibacterial activity against Staphylococcus aureus ATCC 25923 after 24 hrs by spectrophotometric analysis. Type of test: functional, organism-based. The conditions noted are these: Staphylococcus aureus, ATCC 25923, 24 h; for IC50: read-out: IC50.
The subject of test [6] is Staphylococcus aureus. The experiment in a line: Antibacterial activity against gentamicin-resistant Staphylococcus aureus ATCC 33592 after 24 hrs by spectrophotometric analysis. Type of test: functional, organism-based. The note with it: Staphylococcus aureus, ATCC 33592, 24 h; for IC50: read-out: IC50.
Test [7] relates to Staphylococcus aureus. The experiment in a line: Antibacterial activity against gentamicin-resistant Staphylococcus aureus ATCC 33592 by NCCLS two-fold dilution method. It is filed as functional.
In test [8] the test system is Staphylococcus aureus. Description: Antibacterial activity against Staphylococcus aureus ATCC 29213 after 24 hrs by spectrophotometric analysis. It is filed as functional, organism-based. The conditions noted are these: Staphylococcus aureus, ATCC 29213, 24 h; for IC50: read-out: IC50.

SMILES strings stand for the structures. ≈ marks a conversion by molar mass, not a printed value. A value given as a limit tells only on which side of the number the result lay.

Turning to `O=C(O)c1cn(Cc2ccc(C(F)(F)F)cc2)c2cc(N3CCN(C(c4ccncc4)c4nnnn4C4CCCCC4)CC3)c(F)cc2c1=O` (stereo not drawn), the MIC in test [1] was 50 µg/mL (≈ 72.4 µM); in test [2], 50 µg/mL (≈ 72.4 µM); in test [3], 50 µg/mL (≈ 72.4 µM); in test [4], 50 µg/mL (≈ 72.4 µM); in test [5], 50 µg/mL (≈ 72.4 µM); in test [6], > 50 µg/mL. For the same compound, the MIC in test [7] is > 50 µg/mL; in test [8] it was 50 µg/mL (≈ 72.4 µM). The half-maximal inhibitory concentration (IC50) in test [2] was > 50 µg/mL; in test [5], > 50 µg/mL; in test [6], 50 µg/mL (≈ 72.4 µM); in test [8], > 50 µg/mL. In test [3], the “-logMIC” value is listed as 4.14.

Turning to `COc1ccc(C(c2nnnn2C2CCCCC2)N2CCN(c3cc4c(cc3F)c(=O)c(C(=O)O)cn4Cc3ccc(C(F)(F)F)cc3)CC2)c2ccccc12` (stereo not drawn), the MIC in test [1] is > 50 µg/mL; in test [2] it was > 50 µg/mL; in test [3] it was 50 µg/mL (≈ 65 µM); in test [4] it was > 50 µg/mL; in test [5], > 50 µg/mL; in test [6] it was > 50 µg/mL. The MIC in test [7] and in test [8] was > 50 µg/mL each time. In addition, the IC50 was > 50 µg/mL in test [2], 50 µg/mL (≈ 65 µM) in test [5], > 50 µg/mL in test [6] and > 50 µg/mL in test [8]. Also, in test [3], the “-logMIC” value was found to be 4.187.

As for `CC(C)c1ccc(C(c2nnnn2C2CCCCC2)N2CCN(c3cc4c(cc3F)c(=O)c(C(=O)O)cn4Cc3ccc(C(F)(F)F)cc3)CC2)cc1` (stereo not drawn), the MIC in test [1] is > 50 µg/mL; in test [2], 50 µg/mL (≈ 68.3 µM); in test [3], 50 µg/mL (≈ 68.3 µM); in test [4], > 50 µg/mL; in test [5], 50 µg/mL (≈ 68.3 µM); in test [6], > 50 µg/mL. In addition, the minimal inhibitory concentration (MIC) in test [7] and in test [8] was > 50 µg/mL in each case. The IC50 in test [2] is > 50 µg/mL; in test [5], > 50 µg/mL; in test [6], 50 µg/mL (≈ 68.3 µM); in test [8] it was 50 µg/mL (≈ 68.3 µM). The “-logMIC” value in test [3] amounted to 4.165.

Regarding `O=C(O)c1cn(Cc2ccc(C(F)(F)F)cc2)c2cc(N3CCN(C(c4cccc5ccccc45)c4nnnn4C4CCCCC4)CC3)c(F)cc2c1=O` (stereo not drawn), the MIC in test [1] is > 50 µg/mL; in test [2], > 50 µg/mL; in test [3], 50 µg/mL (≈ 67.6 µM); in test [4], > 50 µg/mL; in test [5] it was > 50 µg/mL; in test [6], > 50 µg/mL. The minimum inhibitory concentration (MIC) in test [7] and in test [8] was > 50 µg/mL throughout. Further, the IC50 was > 50 µg/mL in test [2], 50 µg/mL (≈ 67.6 µM) in test [5], > 50 µg/mL in test [6] and > 50 µg/mL in test [8]. For the same compound, the “-logMIC” value in test [3] is reported as 4.169.

As to `CCn1cc(C(=O)O)c(=O)c2cc(F)c(N3CCN(C(c4ccc(OC)c5ccccc45)c4nnnn4C4CCCCC4)CC3)cc21` (stereo not drawn), the minimal inhibitory concentration (MIC) in test [1] came to 25 µg/mL (≈ 39.1 µM); in test [2], 9 µg/mL (≈ 14.1 µM); in test [3], 6.25 µg/mL (≈ 9.77 µM); in test [4], 12.5 µg/mL (≈ 19.5 µM); in test [5] it was 4.4 µg/mL (≈ 6.88 µM); in test [6], 4.7 µg/mL (≈ 7.35 µM). The results for the MIC in test [7] and in test [8] were 6.25 µg/mL (≈ 9.77 µM) and 6.9 µg/mL (≈ 10.8 µM), respectively. Moreover, the IC50 in test [2] was found to be 4.06 µg/mL (≈ 6.35 µM); in test [5], 1.7 µg/mL (≈ 2.66 µM); in test [6], 3.6 µg/mL (≈ 5.63 µM); in test [8], 3.6 µg/mL (≈ 5.63 µM). Moreover, in test [3], the “-logMIC” value was determined as 5.01.

As to `COc1ccc(C(c2nnnn2C(C)(C)C)N2CCN(c3cc4c(cc3F)c(=O)c(C(=O)O)cn4Cc3ccc(C(F)(F)F)cc3)CC2)c2ccccc12` (stereo not drawn), the MIC was > 50 µg/mL in test [1]; 50 µg/mL (≈ 67.2 µM) in test [2]; 50 µg/mL (≈ 67.2 µM) in test [3]; > 50 µg/mL in test [4]; > 50 µg/mL in test [5]; > 50 µg/mL in test [6]. Besides, the minimal inhibitory concentration (MIC) in test [7] and in test [8] was > 50 µg/mL each time. Besides, the half-maximal inhibitory concentration (IC50) in test [2] was 50 µg/mL (≈ 67.2 µM); in test [5], 50 µg/mL (≈ 67.2 µM); in test [6], > 50 µg/mL; in test [8] it was > 50 µg/mL. In addition, in test [3], the “-logMIC” value was found to be 4.172.
